FRβ relative affinity, FR-α relative affinity and IC50 data for two compounds are collected here from article PMC7581941, “Schedule-Dependent Synergy Between the Histone Deacetylase Inhibitor Belinostat and the Dihydrofolate Reductase Inhibitor Pralatrexate in T-and B-cell Lymphoma Cells in vitro” (Frontiers in Cell and Developmental Biology, 2020).

The target of one test is T1, FRβ (Homo sapiens, UniProt P14207).
T1 construct: expressed in transfected cells; host or cells: CHO-FRβ cells
Briefly: Intact cell binding assay, displacement of radio-active folic acid from CHO-FRβ cells. As to conditions: folic acid set at 1. As for the experimental part:
(§1) In order to determine to which extent PLX was a substrate for either the folate receptors, RFC or PCFT we used competition experiments in cell lines overexpressing either transporter ([Westerhof et al., 1995a], [b]; [Jansen et al., 1997]; [Ifergan et al., 2008]; [Lasry et al., 2008]; [van der Heijden et al., 2009]). For FRα and FRβ, we used an intact cell binding assay for competitive binding with KB cells and CHO-FRβ cells, respectively. […] For RFC we used a competition assay with 5 μM [^3H]-l-LV in CCRF-CEM/7A cells (RFC+++) for 2 min at 37°C. CEM-7A cells overexpress the RFC 30-fold over wild-type CCRF-CEM cells ([Jansen et al., 1990], [1997]).

In another test the target is T2, FRα (Homo sapiens, UniProt P15328).
T2 construct: endogenous in cells; host or cells: KB cells
Briefly: Intact cell binding assay, displacement of radio-active folic acid from KB cells. As to conditions: inverse ratio of compound to displace 50% of radio-active folic acid, folic acid set at 1. The protocol: as §1

The target in another test is T3, PCFT (Homo sapiens, UniProt Q96NT5).
T3 construct: expressed in transfected cells; host or cells: CHO cells lacking RFC
T3 sequence (Q96NT5 1-459): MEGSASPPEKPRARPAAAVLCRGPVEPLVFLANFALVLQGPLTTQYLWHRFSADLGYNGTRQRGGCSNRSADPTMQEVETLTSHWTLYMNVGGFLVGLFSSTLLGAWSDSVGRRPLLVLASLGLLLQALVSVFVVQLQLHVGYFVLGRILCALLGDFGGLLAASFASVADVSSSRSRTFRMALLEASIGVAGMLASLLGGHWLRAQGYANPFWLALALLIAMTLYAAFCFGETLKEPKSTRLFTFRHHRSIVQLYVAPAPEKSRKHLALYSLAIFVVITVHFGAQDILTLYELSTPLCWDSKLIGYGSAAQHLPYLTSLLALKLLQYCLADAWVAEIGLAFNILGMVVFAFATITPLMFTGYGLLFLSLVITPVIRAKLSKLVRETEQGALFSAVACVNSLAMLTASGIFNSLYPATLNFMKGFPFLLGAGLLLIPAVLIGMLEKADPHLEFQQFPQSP
Briefly: PCFT competition assay: inhibition of [3H]-l-LV influx in CHO-cells lacking RFC and transfected with PCFT. Format: cell-based. As to conditions: 2.5 μM [3H]-l-LV, pH 5.5, 3 min, 37°C; read-out: PCFT: concentration of unlabeled drug necessary to inhibit [3H]-LV influx. The protocol:
The affinity for PCFT of PLX was assessed in competition with 2.5 μM ^3H-l-LV at pH 5.5 in CHO-cells lacking RFC and transfected with PCFT. […] […] Also for PCFT relative affinities were expressed as the concentration of unlabeled drug necessary to inhibit [^3H]-LV influx.

In another test the target is T4, RFC (Homo sapiens, UniProt P41440).
T4 construct: CEM-7A cells overexpress the RFC 30-fold over wild-type CCRF-CEM cells; endogenous in cells; host or cells: CCRF-CEM/7A (CEM-7A) cells
T4 sequence (P41440 1-591): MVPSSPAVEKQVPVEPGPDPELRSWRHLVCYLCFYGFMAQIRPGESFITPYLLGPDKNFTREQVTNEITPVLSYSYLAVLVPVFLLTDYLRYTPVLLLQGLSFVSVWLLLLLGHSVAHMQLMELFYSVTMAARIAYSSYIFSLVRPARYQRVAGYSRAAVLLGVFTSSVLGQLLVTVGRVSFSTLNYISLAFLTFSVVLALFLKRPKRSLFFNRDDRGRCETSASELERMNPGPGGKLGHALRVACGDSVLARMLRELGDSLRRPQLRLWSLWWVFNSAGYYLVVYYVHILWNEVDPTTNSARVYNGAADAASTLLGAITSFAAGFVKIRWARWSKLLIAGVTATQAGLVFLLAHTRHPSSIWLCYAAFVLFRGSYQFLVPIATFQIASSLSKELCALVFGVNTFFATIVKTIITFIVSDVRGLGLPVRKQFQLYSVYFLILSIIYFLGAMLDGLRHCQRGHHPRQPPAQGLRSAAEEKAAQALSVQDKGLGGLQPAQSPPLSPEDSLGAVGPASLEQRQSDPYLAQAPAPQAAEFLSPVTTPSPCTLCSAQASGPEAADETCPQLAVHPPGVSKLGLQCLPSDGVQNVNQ
Briefly: RFC competition assay: inhibition of [3H]-l-LV uptake in CCRF-CEM/7A cells (RFC+++). Particulars: 5 μM [3H]-l-LV, 2 min, 37°C, CCRF-CEM/7A cells; read-out: RFC: concentration of unlabeled drug necessary to inhibit [3H]-l-LV uptake by 50%. Format: cell-based. As for the experimental part:
For FRα and FRβ, we used an intact cell binding assay for competitive binding with KB cells and CHO-FRβ cells, respectively. […] For RFC we used a competition assay with 5 μM [^3H]-l-LV in CCRF-CEM/7A cells (RFC+++) for 2 min at 37°C.
Transport was determined by evaluation of the uptake of 5 μM [^3H]-l-LV for 2 min in CCRF-CEM-7A cells, which overexpress RFC. […] Values are from one representative experiment in triplicate; performed three times. Error bars represent SEM, when not visible, they are within the size of the marker.

T2 sequence (P15328 25-257): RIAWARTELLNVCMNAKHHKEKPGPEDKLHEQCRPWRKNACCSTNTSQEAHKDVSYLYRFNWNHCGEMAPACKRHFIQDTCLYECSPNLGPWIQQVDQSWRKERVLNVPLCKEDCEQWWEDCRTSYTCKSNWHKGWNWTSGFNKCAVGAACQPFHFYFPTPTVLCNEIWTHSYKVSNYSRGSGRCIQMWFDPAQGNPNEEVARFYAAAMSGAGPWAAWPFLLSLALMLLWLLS
T1 sequence (P14207 17-255, species assumed): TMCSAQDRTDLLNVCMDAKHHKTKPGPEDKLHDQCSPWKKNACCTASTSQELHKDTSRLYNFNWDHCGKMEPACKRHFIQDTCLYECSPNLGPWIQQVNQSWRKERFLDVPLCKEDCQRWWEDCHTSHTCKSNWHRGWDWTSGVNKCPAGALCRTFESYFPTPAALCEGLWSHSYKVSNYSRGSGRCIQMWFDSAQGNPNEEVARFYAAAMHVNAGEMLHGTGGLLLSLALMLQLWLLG

On FRβ, `Nc1nc(=O)c2nc(CNc3ccc(C(=O)N[C@@H](CCC(=O)O)C(=O)O)cc3)cnc2[nH]1` [FA, Folic acid] registered an FRβ relative affinity of 1. Also, on FRα, the FR-α relative affinity turned out to be 1.

In the case of `Nc1nc(=O)c2c([nH]1)NC[C@H](CNc1ccc(C(=O)N[C@@H](CCC(=O)O)C(=O)O)cc1)N2C=O` [l-LV, l-Leucovorin], the IC50 stood at 4 ± 0.1 µM at PCFT and 5.5 ± 0.7 µM on RFC. For the same compound, the FR-α relative affinity at FRα stood at 0.073 ± 0.0010.
